Test results from patent US20250134862A1, “PROCESS FOR TREATING LIVESTOCK EXPOSED TO TOXIC FORAGE USING MELATONIN COMPOSITIONS” (BOARD OF TRUSTEES OF THE UNIVERSITY OF ARKANSAS, priority 2022, published 2025).

What was measured:
[1] = tested on: beef cows that grazed toxic, endophyte-infected tall fescue (E+) during gestation; experiment: Example 3: estimated daily milk volume and weight from four-hour milk yields; type: in vivo, cattle; conditions: d 56, P<0.03
Excerpt: The same artificially inseminated cows were used in Example 3 that were used Example 2. As outlined above in Example 2, forty-nine (n=49) multiparous crossbred beef cows were artificially inseminated with sex-sorted semen (Y chromosome-bearing sperm) from a single Angus sire and maintained on pastures free from E+ fescue prior to the start of the treatment period. Pregnant cows were stratified into three treatment groups based on body weight, with two replications per treatment: non-toxic, novel endophyte-infected (NE+) tall fescue without melatonin supplementation (NE+/NM; n=15), E+ fescue with melatonin supplementation (E+/M; n=16), and E+ fescue without melatonin supplementation (E+/NM; n=18). The treatment period was over 70 d between May and July (d 147±1 to 217-1 of gestation). […]
After birth, calves were castrated within 48-72 hours. […] Protein, lactose, and triglycerides were evaluated in milk samples collected on d 28 and d 56.
(§1) Dam body weight (FIG. 32) and calf body weight (FIG. 34) were analyzed, using the MIXED procedure of SAS specific for repeated measures with treatment and time as fixed effects and replicate as a random effect. Dam prolactin, calf birth weight (FIG. 33), milk volume (FIGS. 35 and 37), and milk weight (FIGS. 36 and 38) were analyzed using the MIXED procedure of SAS with treatment as a fixed effect and replicate as a random effect.

[2] = tested on: pregnant beef cattle grazing toxic, endophyte-infected (E+) tall fescue; experiment: Example 2: color Doppler ultrasound of uterine and coccygeal artery hemodynamics; type: in vivo
Excerpt: (§2) Multiparous crossbred cows were artificially inseminated with sex-sorted semen (Y chromosome-bearing sperm) from a single Angus sire and maintained on pastures free from E+ fescue prior to the start of the treatment period. Pregnant cows […] were assigned to one of three treatment groups based on body weight, with two replications per treatment: non-toxic, novel endophyte-infected (NE+) fescue without melatonin supplementation (NE+/NM; […]), E+ fescue with melatonin supplementation (E+/M; n=16), and E+ fescue without melatonin supplementation (E+/NM; n=18). Treatments were administered over a 70-d period between May and July (d 147±1 to 217±1 of gestation). A commercially available feed was mixed with or without melatonin [100 μg/kg body weight (BW)] and hand-fed daily.
Cows were weighed every fourteen (14) days relative to the start of the 70-d treatment period (FIG. 16-17): i.e., at d 0, 14, 28, 42, 56, and 70. Measurements of plasma prolactin were obtained on d 70 of the treatment period by radioimmunoassay (FIG. 18). Color Doppler ultrasound of the uterine and coccygeal artery was conducted at d 68±1 of the treatment period. Cardiac cycle waveforms from three independent ultrasound scans were used to determine the following uterine artery measures (FIGS. 19-25) and coccygeal artery measures (FIGS. 26-30): diameter (cm), pulsatility index (PI), resistance index (RI), blood flow (BF; mL/min; equal to MnV*vessel area*60 s), and blood flow as a proportion of BW (BF/BW).
(§3) After the treatment period, cattle were maintained together as a single group on pastures that were free from E+ fescue. Body weights were analyzed using the MIXED procedure of SAS specific for repeated measures with treatment, time, and the interaction as fixed effects and replicate as random. Arterial hemodynamics and prolactin measures were analyzed using the MIXED procedure of SAS with treatment as a fixed effect and replicate as a random effect. Ultrasonography day and order were tested as covariates and removed from the model (P<0.05).

[3] = tested on: pregnant beef cattle grazing toxic, endophyte-infected (E+) tall fescue; experiment: Example 2: plasma prolactin by radioimmunoassay on d 70 of the treatment period; type: in vivo; conditions: cows on E+ fescue with melatonin 100 μg/kg BW, d 70 of treatment
Excerpt: as §2
Cows were weighed every fourteen (14) days relative to the start of the 70-d treatment period (FIG. 16-17): i.e., at d 0, 14, 28, 42, 56, and 70. […]
as §3, with “Ultrasonography day and order were tested as covariates and removed from the model (P<0.05).” left out

[4] = tested on: pregnant heifers consuming endophyte-infected (E+) tall fescue seed and their offspring; experiment: Example 1: gestation length and body weights of calves born to dams fed tall fescue seed with or without melatonin; type: in vivo, cattle
Excerpt: Fifty-seven (n=57) pregnant heifers artificially inseminated with sex-sorted semen (X chromosome-bearing sperm) from a single Angus sire were maintained at the Savoy Unit at the University of Arkansas on Bermuda grass pastures and supplemented as needed during the first 4-5 months of gestation. After that time, pregnant heifers were housed in a barn at the Savoy Unit (FIG. 1) having a controlled feeding system (SmartFeed Pro, C-Lock, Inc.). The controlled feeding system used radio frequency identification to control feed mixtures and intake for heifers.
(§4) After the training period, the heifers started a 70-day feeding trial (FIG. 2) to evaluate the influence of toxic fescue and melatonin on the developing fetus. To mimic the natural peak of ergot alkaloids in Kentucky 31 fescue, toxic fescue seed was fed with or without melatonin during the 70-day period between May and July. The feed trial period diet consisted of an ad libitum Bermuda grass hay and one of four (4) feed rations. The trial utilized a 2×2 factorial treatment arrangement (E− without melatonin, E−/NM; E− with melatonin, E−/M; E+ without melatonin, E+/NM; or E+ with melatonin, E+/M; melatonin dose: 100 μg/kg of BW) for a 70-d period between May and July starting at 160±13 days of gestation to mimic ergot alkaloid concentrations (ergot alkaloid dose: 13 μg/kg of BW) in a grazing scenario (FIG. 2). Each of the four feed ration treatments was represented in each of the two pens/groups of cattle (FIG. 1). All diets contained corn gluten and molasses and were fed using SmartFeed Pro (C-Lock Inc.) controlled feeding units between 0900 and 1400 h daily. Cattle were removed from dietary treatments 39±19 days before calving. Two replicates were housed separately in the open-air barn (FIG. 1), each with a 1.2-ha paddock. Before and following the 70-d treatment period, all cattle were maintained as a single group free from toxic fescue.
(§5) Powdered melatonin (Cayman Chemical Company) was mixed into 100% ethanol and mixed with feed (fescue seed, corn gluten, and molasses) in a concrete mixer until the feed was dry (ethanol evaporates, and melatonin remains). Melatonin was dosed at about 100 μg/kg of body weight or about 50 mg/head/day for all groups. Ad libitum Bermuda grass hay was offered in an adjacent pasture area to encourage animals to leave the barn after consuming the feed ration during both the training and the feed trial period. After completion of the feed trial, heifers were maintained on fescue-free pastures at the Physiology Farm and supplemented as needed through calving and until their calves were weaned.
Calf body weight was recorded at birth, and calves were tagged for identification purposes. Blood samples were collected from calves at 12±2 days of age via jugular venipuncture (four 10 mL purple top tubes and one 4 mL purple top tube). At weaning, body weight was recorded, and blood samples were collected via jugular venipuncture (four 10 mL purple top tubes and one 4 mL purple top tube). Vaccinations were administered to calves according to normal procedures at the Savoy Unit. Heifers and calves were maintained according to standard procedures at the Savoy Unit and the Physiology Farm.
Calves were weaned at 226±19 d of age. Gestation length, calf birth weight, 205-day adjusted weaning weight (205-d WW), carcass ultrasonography measures (ribeye area, REA: REA/CWT), percent intramuscular fat (IMF), rib fat thickness (UFAT), rump fat thickness (URUMP), post-weaning weights (recorded every 28 days between weaning and 84 days post-weaning), and post-weaning average daily gain (ADG) (between weaning and 84 days post-weaning) were evaluated in offspring (n=44) (FIGS. 6-13). Post-weaning calf weights were analyzed using the MIXED procedure of SAS specific for repeated measures with treatment and time as fixed effects and replicate as random. […]

[5] = tested on: offspring of dams that consumed endophyte-infected (E+) tall fescue seed; experiment: Example 1: body composition (carcass) ultrasonography of calves at weaning; type: in vivo, cattle
Excerpt: as §4, §5
Calves were weaned at 226±19 d of age. Gestation length, calf birth weight, 205-day adjusted weaning weight (205-d WW), carcass ultrasonography measures (ribeye area, REA: REA/CWT), percent intramuscular fat (IMF), rib fat thickness (UFAT), rump fat thickness (URUMP), post-weaning weights (recorded every 28 days between weaning and 84 days post-weaning), and post-weaning average daily gain (ADG) (between weaning and 84 days post-weaning) were evaluated in offspring (n=44) (FIGS. 6-13). Post-weaning calf weights were analyzed using the MIXED procedure of SAS specific for repeated measures with treatment and time as fixed effects and replicate as random. All other variables were analyzed using the MIXED procedure of SAS with treatment as a fixed effect and replicate as random with gestation length as a covariate for birth weight. Table 1 summarizes the gestation length and body weights of calves born to primiparous dams that consumed E- or E+ fescue seed with (M) or without melatonin (NM) supplementation during mid-late gestation. Data in Tables 1 and 2 are presented as LS MEANS±SEM.

[6] = tested on: steer calves of pregnant beef cattle grazing toxic, endophyte-infected tall fescue (E+); experiment: Example 3: body weight of steer calves born to dams grazing E+ fescue with melatonin supplementation; type: in vivo; conditions: for Calf weight: raw group average
Excerpt: The same artificially inseminated cows were used in Example 3 that were used Example 2. As outlined above in Example 2, forty-nine (n=49) multiparous crossbred beef cows were artificially inseminated with sex-sorted semen (Y chromosome-bearing sperm) from a single Angus sire and maintained on pastures free from E+ fescue prior to the start of the treatment period. Pregnant cows were stratified into three treatment groups based on body weight, with two replications per treatment: non-toxic, novel endophyte-infected (NE+) tall fescue without melatonin supplementation (NE+/NM; n=15), E+ fescue with melatonin supplementation (E+/M; n=16), and E+ fescue without melatonin supplementation (E+/NM; n=18). The treatment period was over 70 d between May and July (d 147±1 to 217-1 of gestation). A commercially available feed was mixed with melatonin (100 μg/kg BW) or without melatonin and hand-fed to each cow daily. At the conclusion of the treatment period (56±18 d before parturition), cattle were moved to a single group and maintained on pastures free from E+ fescue, where they remained through weaning.
After birth, calves were castrated within 48-72 hours. Dams and steer calves were weighed every 28 days relative to calving (FIG. 31): i.e., at d 0, 28, 56, 84, 112, 140, and 168 (d 0=calving, <24 h). Table 3 depicts calf weight at preweaning, postweaning, and feedlot for NE+/NM, E/+M, and E/+NM (respectively, green, yellow, and red in FIG. 34B). Four-hour milk yields on d 28±3 and d 56±3 were used to estimate daily milk volume and weight. Protein, lactose, and triglycerides were evaluated in milk samples collected on d 28 and d 56.
as §1

[7] = cows on E+ fescue with melatonin, d 68±1 of treatment
[8] = calves, melatonin main-effect mean, dams 100 μg/kg BW for 70 d, LS mean
[9] = calves at weaning, melatonin main-effect mean, LS mean

COc1ccc2[nH]cc(CCNC(C)=O)c2c1 [melatonin]
estimated daily milk volume relative to NE+/NM dams [1]: decreased
estimated daily milk weight relative to NE+/NM dams [1]: decreased
Coccygeal artery PI (pulsatility index) [2, 7]: 0.86±0.1
Coccygeal artery RI (resistance index) [2, 7]: 0.53±0.02
effects on uterine and coccygeal artery hemodynamics ([2]; pregnant multiparous crossbred beef cows grazing endophyte-infected tall fescue): limited effects
Prolactin (plasma) [3]: 86.9 ± 14.9 ng/mL
calf weight at weaning recovered by feeding melatonin ([4]; Example 1, first-calf heifers, statistically adjusted means): approximately 53 lbs.
share of the loss in calf weight at weaning recovered by feeding melatonin ([4]; Example 1, loss approximately 68 lbs., statistically adjusted means): over 75%
birth weight of offspring, dams receiving melatonin relative to those without ([4]; P=0.02 as printed in text): increased
205-d WW (205-day adjusted weaning weight) [4, 8]: 176.95 kg
Birth Weight [4, 8]: 25.90 kg
205-d weaning weight, toxic fescue seed with melatonin compared to toxic fescue seed without melatonin ([4]; fescue × melatonin interaction): increased
post-weaning calf weight, toxic fescue seed with melatonin compared to toxic fescue seed without melatonin ([4]; fescue × melatonin interaction): increased
Gestation Length ([4]; melatonin main-effect mean (E- and E+ diets pooled), 100 μg/kg BW in feed for 70 d mid-late gestation, LS mean): 272.00 days
IMF (percent intramuscular fat) [5, 9]: 2.60%
REA (ribeye area) [5, 9]: 5.87 in.^2
UFAT (rib fat thickness) [5, 9]: 0.08 in.
URUMP (rump fat thickness) [5, 9]: 0.08 in.
ribeye area, toxic fescue seed with melatonin compared to toxic fescue seed without melatonin ([5]; fescue × melatonin interaction): increased
Calf weight ([6]; Birth): 74.43 lbs.
Calf weight ([6]; D 28): 148.07 lbs.
Calf weight ([6]; D 56): 212.07 lbs.
Calf weight ([6]; D 84): 278.46 lbs.
Calf weight ([6]; D 112): 347.15 lbs.
Calf weight ([6]; D 140): 409.15 lbs.
Calf weight ([6]; D 168): 476.77 lbs.
Calf weight ([6]; D 196): 535.31 lbs.
Calf weight ([6]; D +28 Post-Weaning): 641.23 lbs.
Calf weight ([6]; D +56 Post-Weaning): 703.69 lbs.
Calf weight ([6]; D +84 Post-Weaning): 766.62 lbs.
Calf weight ([6]; D +112 Post-Weaning): 852.92 lbs.
Calf weight ([6]; Feedlot - October 29): 1003.33 lbs.
Calf weight ([6]; Weaning): 622.31 lbs.
share of the loss in calf weight recovered by feeding melatonin ([6]; second study, 28 days prior to weaning, loss 28 lbs., statistically adjusted means): over 65%
calf weight recovered by feeding melatonin ([6]; second study, 28 days prior to weaning, multiparous cows, statistically adjusted means): approximately 19 lbs.
